Experimental data reported in paper PMC12420824, “Discovery of a selective alpha-kinase 1 inhibitor for the rare genetic disease ROSAH syndrome” (Nature Communications, 2025).
Several values for one entry are separate records, joined by “and”; a condition that tells them apart may be missing. Equal values may be shown once.

How the values were obtained:
WNK2 = WNK2 (Homo sapiens, UniProt Q9Y3S1); experiment: HotSpot kinase assay; settings: read-out: % Enzyme Activity (relative to DMSO control), 10 uM
MAPKAPK5/PRAK = MAPKAPK5/PRAK (Homo sapiens, UniProt Q8IW41); experiment: HotSpot kinase assay; settings: read-out: % Enzyme Activity (relative to DMSO control), 10 uM
CAMK1b = CAMK1b (Homo sapiens, UniProt Q6P2M8); experiment: HotSpot kinase assay; settings: read-out: % Enzyme Activity (relative to DMSO control), 10 uM
[1] = tested on: HEK-293 cells transfected with GFP-TIFA; experiment: DF-006-induced TIFAsome formation
Description: Curve fitting and IC50 value calculations were performed with GraphPad Prism 6.
HEK-293 cells were purchased from the Cell Bank of The Chinese Academy of Sciences and routinely cultured in DMEM/High-Glucose (Hyclone). For TIFAsome analyses, the coding sequence for the GFP-TIFA fusion protein was cloned into the pcDNA3.1 plasmid. […] Each condition was conducted in sextuplicate. Cells were fixed with 4% paraformaldehyde and stained with DAPI (Shanghai Zhenghuang, Shanghai, China; C1005). Fluorescent images were acquired using a Motic upright fluorescent microscope (PA53 BIO FS6).

PLK3 = PLK3 (Homo sapiens, UniProt Q9H4B4); experiment: HotSpot kinase assay; settings: read-out: % Enzyme Activity (relative to DMSO control), 10 uM
IRAK4 = IRAK4 (Homo sapiens, UniProt Q9NWZ3); experiment: HotSpot kinase assay; settings: read-out: % Enzyme Activity (relative to DMSO control), 10 uM
Excerpt: (§1) Additionally, a 10-dose dilution series of staurosporine and other enzyme-appropriate compounds were included as positive control inhibitors.

MKK7 = MKK7 (Homo sapiens, UniProt O14733); experiment: HotSpot kinase assay; settings: read-out: % Enzyme Activity (relative to DMSO control), 10 uM
AMPK(A2/B2/G3) = AMPK(A2/B2/G3) (Homo sapiens, UniProt P54646); experiment: HotSpot kinase assay; settings: read-out: % Enzyme Activity (relative to DMSO control), 10 uM
Excerpt: as §1

TRKA = TRKA (Homo sapiens, UniProt P04629); experiment: HotSpot kinase assay; settings: read-out: % Enzyme Activity (relative to DMSO control), 10 uM
Excerpt: as §1

DAPK2 = DAPK2 (Homo sapiens, UniProt Q9UIK4); experiment: HotSpot kinase assay; settings: read-out: % Enzyme Activity (relative to DMSO control), 10 uM
Excerpt: as §1

GRK4 = GRK4 (Homo sapiens, UniProt P32298); experiment: HotSpot kinase assay; settings: read-out: % Enzyme Activity (relative to DMSO control), 10 uM
Excerpt: as §1

IRR/INSRR = IRR/INSRR (Homo sapiens, UniProt P14616); experiment: HotSpot kinase assay; settings: read-out: % Enzyme Activity (relative to DMSO control), 10 uM
Excerpt: as §1

AKT1 = AKT1 (Homo sapiens, UniProt P31749); experiment: HotSpot kinase assay; settings: read-out: % Enzyme Activity (relative to DMSO control), 10 uM
Haspin = Haspin (Homo sapiens, UniProt Q8TF76); experiment: HotSpot kinase assay; settings: read-out: % Enzyme Activity (relative to DMSO control), 10 uM
RIPK2 = RIPK2 (Homo sapiens, UniProt O43353); experiment: HotSpot kinase assay; settings: read-out: % Enzyme Activity (relative to DMSO control), 10 uM
GLK/MAP4K3 = GLK/MAP4K3 (Homo sapiens, UniProt Q8IVH8); experiment: HotSpot kinase assay; settings: read-out: % Enzyme Activity (relative to DMSO control), 10 uM
EPHA6 = EPHA6 (Homo sapiens, UniProt Q9UF33); experiment: HotSpot kinase assay; settings: read-out: % Enzyme Activity (relative to DMSO control), 10 uM
EPHB1 = EPHB1 (Homo sapiens, UniProt P54762); experiment: HotSpot kinase assay; settings: read-out: % Enzyme Activity (relative to DMSO control), 10 uM
Excerpt: as §1

MARK1 = MARK1 (Homo sapiens, UniProt Q9P0L2); experiment: HotSpot kinase assay; settings: read-out: % Enzyme Activity (relative to DMSO control), 10 uM
KSR1 = KSR1 (Homo sapiens, UniProt Q8IVT5); experiment: HotSpot kinase assay; settings: read-out: % Enzyme Activity (relative to DMSO control), 10 uM
Excerpt: as §1

MLK4 = MLK4 (Homo sapiens, UniProt Q5TCX8); experiment: HotSpot kinase assay; settings: read-out: % Enzyme Activity (relative to DMSO control), 10 uM
TLK2 = TLK2 (Homo sapiens, UniProt Q86UE8); experiment: HotSpot kinase assay; settings: read-out: % Enzyme Activity (relative to DMSO control), 10 uM
Excerpt: as §1

IGF1R = IGF1R (Homo sapiens, UniProt P08069); experiment: HotSpot kinase assay; settings: read-out: % Enzyme Activity (relative to DMSO control), 10 uM
PASK = PASK (Homo sapiens, UniProt Q96RG2); experiment: HotSpot kinase assay; settings: read-out: % Enzyme Activity (relative to DMSO control), 10 uM
Excerpt: as §1

CAMK2a = CAMK2a (Homo sapiens, UniProt Q9UQM7); experiment: HotSpot kinase assay; settings: read-out: % Enzyme Activity (relative to DMSO control), 10 uM
NEK7 = NEK7 (Homo sapiens, UniProt Q8TDX7); experiment: HotSpot kinase assay; settings: read-out: % Enzyme Activity (relative to DMSO control), 10 uM
Excerpt: as §1

CHK2 = CHK2 (Homo sapiens, UniProt O96017); experiment: HotSpot kinase assay; settings: read-out: % Enzyme Activity (relative to DMSO control), 10 uM
MAPKAPK2 = MAPKAPK2 (Homo sapiens, UniProt P49137); experiment: HotSpot kinase assay; settings: read-out: % Enzyme Activity (relative to DMSO control), 10 uM
Excerpt: as §1

STK21/CIT = STK21/CIT (Homo sapiens, UniProt O14578); experiment: HotSpot kinase assay; settings: read-out: % Enzyme Activity (relative to DMSO control), 10 uM
Excerpt: as §1

PRKX = PRKX (Homo sapiens, UniProt P51817); experiment: HotSpot kinase assay; settings: read-out: % Enzyme Activity (relative to DMSO control), 10 uM
Excerpt: as §1

TGFBR2 = TGFBR2 (Homo sapiens, UniProt P37173); experiment: HotSpot kinase assay; settings: read-out: % Enzyme Activity (relative to DMSO control), 10 uM
Excerpt: as §1

ULK2 = ULK2 (Homo sapiens, UniProt Q8IYT8); experiment: HotSpot kinase assay; settings: read-out: % Enzyme Activity (relative to DMSO control), 10 uM
Excerpt: as §1

BRK = BRK (Homo sapiens, UniProt Q13882); experiment: HotSpot kinase assay; settings: read-out: % Enzyme Activity (relative to DMSO control), 10 uM
Excerpt: as §1

STK38/NDR1 = STK38/NDR1 (Homo sapiens, UniProt Q15208); experiment: HotSpot kinase assay; settings: read-out: % Enzyme Activity (relative to DMSO control), 10 uM
Excerpt: as §1

CK1epsilon = CK1epsilon (Homo sapiens, UniProt P49674); experiment: HotSpot kinase assay; settings: read-out: % Enzyme Activity (relative to DMSO control), 10 uM
Excerpt: as §1

NLK = NLK (Homo sapiens, UniProt Q9UBE8); experiment: HotSpot kinase assay; settings: read-out: % Enzyme Activity (relative to DMSO control), 10 uM
Excerpt: as §1

mTOR/FRAP1 = mTOR/FRAP1 (Homo sapiens, UniProt P42345); experiment: HotSpot kinase assay; settings: read-out: % Enzyme Activity (relative to DMSO control), 10 uM
Excerpt: as §1

ERBB4/HER4 = ERBB4/HER4 (Homo sapiens, UniProt Q15303); experiment: HotSpot kinase assay; settings: read-out: % Enzyme Activity (relative to DMSO control), 10 uM
Excerpt: as §1

CDK2/cyclin A = CDK2/cyclin A (Homo sapiens, UniProt P24941); experiment: HotSpot kinase assay; settings: read-out: % Enzyme Activity (relative to DMSO control), 10 uM
Excerpt: as §1

Sequence of ERBB4/HER4 (Q15303 26-1308): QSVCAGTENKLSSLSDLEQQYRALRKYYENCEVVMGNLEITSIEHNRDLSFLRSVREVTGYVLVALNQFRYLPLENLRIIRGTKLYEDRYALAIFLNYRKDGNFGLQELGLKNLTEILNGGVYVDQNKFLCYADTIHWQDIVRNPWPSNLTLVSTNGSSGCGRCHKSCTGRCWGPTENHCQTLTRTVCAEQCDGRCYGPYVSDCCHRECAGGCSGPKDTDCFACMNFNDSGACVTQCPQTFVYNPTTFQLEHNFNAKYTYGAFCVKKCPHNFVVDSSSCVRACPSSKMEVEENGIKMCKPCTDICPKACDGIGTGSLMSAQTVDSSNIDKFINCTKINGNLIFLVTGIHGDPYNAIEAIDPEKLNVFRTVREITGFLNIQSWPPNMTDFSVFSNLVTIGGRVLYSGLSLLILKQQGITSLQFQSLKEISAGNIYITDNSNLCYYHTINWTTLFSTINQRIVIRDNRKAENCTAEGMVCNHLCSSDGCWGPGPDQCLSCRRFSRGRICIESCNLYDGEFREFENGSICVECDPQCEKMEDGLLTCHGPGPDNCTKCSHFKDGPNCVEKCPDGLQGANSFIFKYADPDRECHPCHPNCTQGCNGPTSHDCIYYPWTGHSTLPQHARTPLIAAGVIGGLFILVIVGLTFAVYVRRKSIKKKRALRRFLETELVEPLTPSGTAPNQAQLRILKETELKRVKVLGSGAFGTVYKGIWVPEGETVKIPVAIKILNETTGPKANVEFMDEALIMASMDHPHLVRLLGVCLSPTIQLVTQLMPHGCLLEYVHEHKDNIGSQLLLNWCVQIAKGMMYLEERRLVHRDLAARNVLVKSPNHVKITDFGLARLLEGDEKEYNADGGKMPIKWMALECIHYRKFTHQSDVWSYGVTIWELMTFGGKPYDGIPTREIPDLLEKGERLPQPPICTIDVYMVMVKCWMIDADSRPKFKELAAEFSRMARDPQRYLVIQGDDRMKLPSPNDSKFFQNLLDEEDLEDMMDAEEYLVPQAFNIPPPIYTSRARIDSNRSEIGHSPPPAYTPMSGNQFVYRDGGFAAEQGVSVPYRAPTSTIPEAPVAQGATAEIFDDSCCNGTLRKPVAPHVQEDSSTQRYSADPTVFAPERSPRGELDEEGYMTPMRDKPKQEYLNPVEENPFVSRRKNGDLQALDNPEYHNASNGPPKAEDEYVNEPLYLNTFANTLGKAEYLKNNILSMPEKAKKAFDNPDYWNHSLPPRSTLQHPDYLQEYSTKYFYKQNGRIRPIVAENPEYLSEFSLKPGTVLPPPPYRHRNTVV
Sequence of RIPK2 (O43353 whole entry): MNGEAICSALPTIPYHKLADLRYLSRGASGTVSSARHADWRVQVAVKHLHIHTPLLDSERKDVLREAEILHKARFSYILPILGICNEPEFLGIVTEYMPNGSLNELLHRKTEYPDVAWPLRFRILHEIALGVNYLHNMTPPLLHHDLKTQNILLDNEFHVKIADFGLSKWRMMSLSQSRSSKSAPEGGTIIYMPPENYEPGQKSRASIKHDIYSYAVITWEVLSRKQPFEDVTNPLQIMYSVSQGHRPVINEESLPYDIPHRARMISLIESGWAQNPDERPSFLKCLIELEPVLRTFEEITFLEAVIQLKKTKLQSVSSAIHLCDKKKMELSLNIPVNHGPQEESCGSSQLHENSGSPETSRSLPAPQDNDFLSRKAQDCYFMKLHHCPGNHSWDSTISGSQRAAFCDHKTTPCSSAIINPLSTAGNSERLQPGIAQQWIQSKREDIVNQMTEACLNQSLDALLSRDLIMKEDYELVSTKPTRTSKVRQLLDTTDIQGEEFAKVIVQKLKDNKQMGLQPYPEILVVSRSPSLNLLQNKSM
Sequence of MAPKAPK5/PRAK (Q8IW41 whole entry): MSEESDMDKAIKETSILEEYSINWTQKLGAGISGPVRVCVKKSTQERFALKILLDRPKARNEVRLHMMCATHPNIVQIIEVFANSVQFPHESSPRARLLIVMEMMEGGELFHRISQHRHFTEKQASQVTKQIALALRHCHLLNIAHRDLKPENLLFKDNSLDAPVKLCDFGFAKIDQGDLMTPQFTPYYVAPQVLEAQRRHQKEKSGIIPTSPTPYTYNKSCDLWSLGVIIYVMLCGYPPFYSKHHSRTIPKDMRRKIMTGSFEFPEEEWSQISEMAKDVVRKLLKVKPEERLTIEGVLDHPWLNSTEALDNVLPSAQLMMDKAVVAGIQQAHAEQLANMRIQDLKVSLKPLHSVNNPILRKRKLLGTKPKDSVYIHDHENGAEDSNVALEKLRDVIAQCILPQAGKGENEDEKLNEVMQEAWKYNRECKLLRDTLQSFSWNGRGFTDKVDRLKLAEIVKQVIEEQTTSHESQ
Sequence of PRKX (P51817 whole entry): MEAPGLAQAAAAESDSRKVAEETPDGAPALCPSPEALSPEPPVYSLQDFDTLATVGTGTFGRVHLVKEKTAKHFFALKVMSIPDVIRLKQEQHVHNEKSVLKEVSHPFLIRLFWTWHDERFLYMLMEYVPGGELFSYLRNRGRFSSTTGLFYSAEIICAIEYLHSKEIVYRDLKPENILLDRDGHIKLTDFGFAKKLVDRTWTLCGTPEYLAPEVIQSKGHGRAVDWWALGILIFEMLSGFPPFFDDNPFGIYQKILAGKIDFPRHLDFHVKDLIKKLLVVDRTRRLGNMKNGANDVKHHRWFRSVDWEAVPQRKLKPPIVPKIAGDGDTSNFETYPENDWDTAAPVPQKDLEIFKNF
Sequence of TRKA (P04629 33-796): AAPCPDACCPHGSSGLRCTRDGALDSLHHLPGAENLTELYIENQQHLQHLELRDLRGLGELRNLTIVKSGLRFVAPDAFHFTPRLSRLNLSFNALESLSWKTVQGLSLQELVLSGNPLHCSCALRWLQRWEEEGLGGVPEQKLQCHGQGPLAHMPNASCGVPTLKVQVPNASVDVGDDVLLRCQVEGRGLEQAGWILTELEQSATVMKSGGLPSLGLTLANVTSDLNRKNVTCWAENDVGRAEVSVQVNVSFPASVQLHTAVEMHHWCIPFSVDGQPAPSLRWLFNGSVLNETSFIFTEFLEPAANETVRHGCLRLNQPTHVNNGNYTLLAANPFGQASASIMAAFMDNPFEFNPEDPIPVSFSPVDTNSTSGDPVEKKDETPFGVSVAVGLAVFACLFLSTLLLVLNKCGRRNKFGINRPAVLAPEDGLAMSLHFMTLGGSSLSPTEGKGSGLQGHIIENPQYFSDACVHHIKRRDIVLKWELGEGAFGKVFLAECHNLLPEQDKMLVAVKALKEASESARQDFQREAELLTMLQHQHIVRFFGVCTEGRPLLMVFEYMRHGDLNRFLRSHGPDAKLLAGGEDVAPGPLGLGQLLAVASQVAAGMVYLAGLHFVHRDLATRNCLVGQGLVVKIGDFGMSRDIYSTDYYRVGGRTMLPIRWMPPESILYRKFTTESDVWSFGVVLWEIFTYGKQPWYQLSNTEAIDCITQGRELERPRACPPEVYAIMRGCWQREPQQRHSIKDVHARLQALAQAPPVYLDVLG
Sequence of MAPKAPK2 (P49137 whole entry): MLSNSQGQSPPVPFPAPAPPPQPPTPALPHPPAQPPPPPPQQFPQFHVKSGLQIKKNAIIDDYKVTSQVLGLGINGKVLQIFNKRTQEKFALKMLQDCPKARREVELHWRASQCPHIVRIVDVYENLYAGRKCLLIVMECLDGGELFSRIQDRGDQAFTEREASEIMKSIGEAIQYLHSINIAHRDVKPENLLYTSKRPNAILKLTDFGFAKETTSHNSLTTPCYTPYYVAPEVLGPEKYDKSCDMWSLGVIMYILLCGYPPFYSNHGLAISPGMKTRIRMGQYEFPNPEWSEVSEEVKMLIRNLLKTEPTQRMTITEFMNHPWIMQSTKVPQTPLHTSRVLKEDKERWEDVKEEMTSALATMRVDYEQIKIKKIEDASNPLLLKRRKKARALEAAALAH
Sequence of CK1epsilon (P49674 whole entry): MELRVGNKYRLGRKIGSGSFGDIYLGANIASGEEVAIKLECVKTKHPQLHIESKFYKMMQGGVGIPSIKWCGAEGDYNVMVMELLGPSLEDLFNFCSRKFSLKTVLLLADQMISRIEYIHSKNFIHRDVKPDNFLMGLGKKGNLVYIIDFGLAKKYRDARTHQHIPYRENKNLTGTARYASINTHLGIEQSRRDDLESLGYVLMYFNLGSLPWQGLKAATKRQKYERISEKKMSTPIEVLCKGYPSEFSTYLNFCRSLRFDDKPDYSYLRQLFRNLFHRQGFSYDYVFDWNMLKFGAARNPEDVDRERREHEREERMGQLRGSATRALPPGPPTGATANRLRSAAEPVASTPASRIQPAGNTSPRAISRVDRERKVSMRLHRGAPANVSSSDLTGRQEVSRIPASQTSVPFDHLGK
Sequence of CAMK2a (Q9UQM7 whole entry): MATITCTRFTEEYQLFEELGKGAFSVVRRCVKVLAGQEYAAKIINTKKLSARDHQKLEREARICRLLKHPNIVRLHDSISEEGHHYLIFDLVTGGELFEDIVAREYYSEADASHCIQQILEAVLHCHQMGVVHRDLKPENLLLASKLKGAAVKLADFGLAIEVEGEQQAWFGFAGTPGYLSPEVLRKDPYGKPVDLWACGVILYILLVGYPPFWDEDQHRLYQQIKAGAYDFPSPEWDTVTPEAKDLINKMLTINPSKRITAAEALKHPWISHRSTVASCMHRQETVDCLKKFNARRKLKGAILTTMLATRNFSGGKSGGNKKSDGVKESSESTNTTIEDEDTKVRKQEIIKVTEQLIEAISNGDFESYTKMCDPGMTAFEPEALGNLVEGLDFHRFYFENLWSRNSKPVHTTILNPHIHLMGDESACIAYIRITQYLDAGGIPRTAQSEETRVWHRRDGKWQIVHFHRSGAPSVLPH
Sequence of NEK7 (Q8TDX7 whole entry): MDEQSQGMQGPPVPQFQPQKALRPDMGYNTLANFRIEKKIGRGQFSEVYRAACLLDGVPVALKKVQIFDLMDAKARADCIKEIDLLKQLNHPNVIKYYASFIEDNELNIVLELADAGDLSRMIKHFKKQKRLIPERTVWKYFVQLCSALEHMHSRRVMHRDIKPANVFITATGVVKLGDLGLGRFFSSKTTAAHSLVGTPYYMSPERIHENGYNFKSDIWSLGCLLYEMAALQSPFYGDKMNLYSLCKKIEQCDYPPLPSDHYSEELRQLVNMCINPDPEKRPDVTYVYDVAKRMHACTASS

C#C[C@@](C)(c1ccc(Cl)cc1)c1csc(NC(=O)c2c(F)cc(N3CCNCC3)cc2F)n1 (stereo in doubt) [DF-003]
remaining activity at 10 µM (WNK2): 104%
remaining activity at 10 µM (MAPKAPK5/PRAK): 93%
remaining activity at 10 µM (CAMK1b): 36.7%
effect on DF-006-induced TIFAsome formation ([1]; 10 nM to 1 μM, 1 μM DF-006 1 h): potently suppressed DF-006-induced TIFAsome formation
Cells with TIFAsomes /GFP positive cells (%) ([1]; 200 nM DF-003+1 μM DF-006): 2.74% and 2.86% and 1.45% and 4.74% and 3.09%
Cells with TIFAsomes /GFP positive cells (%) ([1]; 1 μM DF-003+1 μM DF-006): 1.25% and 0% and 3.05% and 2.92% and 5.22%
remaining activity at 10 µM (PLK3): 102%
remaining activity at 10 µM (IRAK4): 95.5%
remaining activity at 10 µM (MKK7): 103%
remaining activity at 10 µM (AMPK(A2/B2/G3)): 85%
remaining activity at 10 µM (TRKA): 46.4%
remaining activity at 10 µM (DAPK2): 73.9%
remaining activity at 10 µM (GRK4): 108%
remaining activity at 10 µM (IRR/INSRR): 66.3%
remaining activity at 10 µM (AKT1): 81.4%
remaining activity at 10 µM (Haspin): 85.7%
remaining activity at 10 µM (RIPK2): 125%
remaining activity at 10 µM (GLK/MAP4K3): 77.3%
remaining activity at 10 µM (EPHA6): 79.3%
remaining activity at 10 µM (EPHB1): 80.8%
remaining activity at 10 µM (MARK1): 104%
remaining activity at 10 µM (KSR1): 91.5%
remaining activity at 10 µM (MLK4): 85.8%
remaining activity at 10 µM (TLK2): 92.1%
remaining activity at 10 µM (IGF1R): 94.6%
remaining activity at 10 µM (PASK): 56.5%
remaining activity at 10 µM (CAMK2a): 9.74%
remaining activity at 10 µM (NEK7): 118%
remaining activity at 10 µM (CHK2): 89.9%
remaining activity at 10 µM (MAPKAPK2): 108%
remaining activity at 10 µM (STK21/CIT): 108%
remaining activity at 10 µM (PRKX): 87.4%
remaining activity at 10 µM (TGFBR2): 91.5%
remaining activity at 10 µM (ULK2): 86%
remaining activity at 10 µM (BRK): 81.2%
remaining activity at 10 µM (STK38/NDR1): 90%
remaining activity at 10 µM (CK1epsilon): 76.9%
remaining activity at 10 µM (NLK): 99.5%
remaining activity at 10 µM (mTOR/FRAP1): 92.1%
remaining activity at 10 µM (ERBB4/HER4): 121%
remaining activity at 10 µM (CDK2/cyclin A): 88.3%
